Two compounds from US6566368B2, “Apomorphine-containing dosage form for ameliorating male erectile dysfunction” (Pentech Pharmaceuticals, Inc., priority 1994, dated 2003) can be followed below.

The subject of experiment [1] is patients with psychogenic impotence. To be noted: patients on liquid sublingual apomorphine 10 mg and 20 mg.
The test system is the same in experiment [2]. To be noted: nicotine e.g. by smoking.

Each structure is given as a SMILES string.

In the case of `O=c1[nH]c2ccccc2n1CCCN1CCC(n2c(=O)[nH]c3cc(Cl)ccc32)CC1` [Domperidone], the “counteraction of apomorphine adverse effects (nausea, vomiting, diaphoresis, etc.)” value in experiment [1] is reported as “can be counteracted”. The “counteraction of adverse effects of the 5 mg apomorphine dose (nausea, diaphoresis, etc.)” value in experiment [2] is reported as “can be counteracted”.
Turning to `CN1CCCC1c1cccnc1` (stereo not drawn) [nicotine], the “counteraction of adverse effects of the 5 mg apomorphine dose (nausea, diaphoresis, etc.)” value in experiment [2] is recorded as “can be counteracted”.
